Source: US11484543B2, “Compositions and methods for diagnosing and treating diseases and disorders associated with mutant KCNJ5” (The Rockefeller University, priority 2017, dated 2022)

Tests used:
KCNJ5^WT = target: T1, KCNJ5^WT (Homo sapiens, UniProt P48544); experiment: Perforated whole-cell patch clamp, KCNJ5^WT homotetramers in HEK293T cells; format: cell-based; settings: increasing concentrations, −80 mV (FIG. 12D)
T1 construct: expressed in transfected cells
T1 sequence (P48544 1-419): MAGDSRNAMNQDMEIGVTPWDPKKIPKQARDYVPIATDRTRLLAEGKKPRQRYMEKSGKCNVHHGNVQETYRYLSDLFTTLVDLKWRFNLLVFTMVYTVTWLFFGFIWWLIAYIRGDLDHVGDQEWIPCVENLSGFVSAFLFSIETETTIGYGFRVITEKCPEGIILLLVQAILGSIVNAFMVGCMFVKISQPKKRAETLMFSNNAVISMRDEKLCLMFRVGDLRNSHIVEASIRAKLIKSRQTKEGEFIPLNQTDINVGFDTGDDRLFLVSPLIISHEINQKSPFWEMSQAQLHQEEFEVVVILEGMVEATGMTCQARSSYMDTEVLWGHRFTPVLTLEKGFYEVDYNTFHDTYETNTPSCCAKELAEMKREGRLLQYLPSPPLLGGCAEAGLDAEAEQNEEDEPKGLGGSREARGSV
Protocol: Cation currents were measured with the perforated whole cell recording technique (140 mM NaCl/5 mM KCl bath solution, 140 mM KCl pipette solution for KCNJ5^G151R; 140 mM NaCl/5 mM KCl bath solution, 140 mM KCl, 1.8 mM MgCl2 pipette solution for KCNJ5^L168R; 140 mM KCl bath and pipette solution for KCNJ5^WT). […] Errors represent standard error of the mean, N=3 to 6. […] In contrast, WT currents are not inhibited.
HEK293T cells (American Type Culture Collection) were used for transient expression of GFP-tagged KCNJ5 or KCNJ3. The cells were grown in Dulbecco's modified Eagle medium (DMEM; Invitrogen) supplemented with 10% FBS (Invitrogen) in 5% CO2 and 95% air at 37° C. […]
Within 24 hr after transfection, the cells were treated with trypsin-containing medium (TrypLE Express) (Gibco) for 10 minutes to detach the cells. […] Fluorescence signal (an indication of positive transfection) was detected with an intensified video imaging system including a SIT 68 camera (Long Island Industries). […] After forming a high resistance seal (>2 GΩ), the membrane capacitance was monitored until the whole-cell patch configuration was formed. The cell membrane capacitance was measured and compensated. The K/cation currents were measured from −80 mV to 20 mV with 20 mV steps by an Axon 200A patch-clamp amplifier. […]

[1] = test system: CYP11B2 (aldosterone synthase) expression, H295R cells expressing KCNJ5^WT; experiment: Real-time PCR of CYP11B2 in H295R cells transfected with KCNJ5^WT; format: cell-based, human; settings: 5, 20 or 50 μM for 18 h
Protocol: H295R cells were cultured in DMEM/F12, HEPES (Gibco) supplemented with 2.5% Ultroser G (Pall Biosepra), 1% ITS+ Premix (Corning) and 1% Penicillin/Streptomycin (Gibco). Plasmids were purified using the Endofree Maxi Kit (Qiagen). […] 3×10^6 cells were transfected with 3 μg pIRES eGFP containing no insert, WT or mutant KCNJ5 using an Amaxa Nucleofector I (program P-20) and the Nucleofector Kit R (Lonza). Cells were allowed to recover briefly in RPMI 1640 medium (Gibco). […] After an additional 18 h, RNA was harvested using the RNeasy Mini Kit (Qiagen) following the manufacturer's instructions. 300 ng RNA were transcribed using the Quantitect Reverse Transcription Kit (Qiagen). Expression levels of CYP11B2 and GAPDH were quantified in triplicates in a 7300 Real-Time PCR System (Applied Biosystems) using the Taqman Gene Expression Master Mix and assays Hs01597732_m1 (CYP11B2) or HS02758991_g1 (GAPDH) (all Applied Biosystems). DDCT values were calculated by normalization of DCT values, using the average DCT of vehicle treated empty vector-transfected cells as a reference.
This cell line is derived from a human adrenocortical carcinoma and represents a commonly used in vitro model of zona glomerulosa aldosterone production (Wang et al. 2012, Horm. Metab. Res. 44:245-250). […]

CC[C@H]1OC(=O)[C@H](C)[C@@H](O[C@H]2C[C@@](C)(OC)[C@@H](O)[C@H](C)O2)[C@H](C)[C@@H](O[C@@H]2O[C@H](C)C[C@H](N(C)C)[C@H]2O)[C@](C)(O)C[C@@H](C)/C(=N\OCOCCOC)[C@H](C)[C@@H](O)[C@]1(C)O [Roxithromycin, roxithromycin]
inhibition of WT currents (KCNJ5^WT): not inhibited | expression of CYP11B2 [1]: virtually no change
